Measured values: US12616753B2, “HSP70 inhibitors and methods of using same” (THE WISTAR INSTITUTE, priority 2020, dated 2026)

Legend:
Format in all cases: cell-based, human
[1] = tested on: 1205Lu and HT-29 tumor cell lines; test: Seahorse XF Cell Mito Stress Test, tumor cell lines; conditions: 500 nM (sublethal), 24 hours
Experimental: (§1) FIG. 2A: IMR90 cells (non-transformed fibroblasts), 1205Lu (melanoma), and HT-29 (CRC) cancer cells were treated with sub-lethal doses (500 nM) of the HSP70 inhibitors PET-16 (positive control) or AP-4-139B for 24 hours. Cells were then subjected to the Seahorse Mito Stress Test Assay. Injections were Oligomycin (1 μM, line A), FCPP (0.5-1 μM, line B), and Rotenone/Antimycin A (1 μM, line C). Each graphical representation indicates the mean±standard deviation of a minimum of 5 technical replicates. […] Each experiment was performed in triplicate and independently repeated twice. FIGS. 2B-2D: Basal Oxygen Consumption Rate (ORC) (FIG. 2B), Maximal OCR (FIG. 2C), and ATP production (FIG. 2D) were analyzed in IMR90 fibroblasts, non-transformed colonic epithelial cells (CCD 841 CoN), 1205Lu melanoma cells and HT-29 CRC cells, in the presence or absence of 500 nM HSP70 inhibitors or negative control (VY-3-277). All experiments were performed in triplicate, with each group containing 5-6 technical replicates. ** p<0.01, *** p<0.001, n.s. not significant.
(§2) The XF Cell Mito Stress Test was performed. […] For extracellular ATP release, ATP was measured using the CellTiter-Glo Kit (Promega catalog #G7570). […] 10 μl of CellTiter-Glo Reaction Mix was then mixed with 10 μl of culture media; the luminescence signal was detected using a luminometer.

[2] = tested on: IMR90 and CCD 841 CoN cells; test: Seahorse XF Cell Mito Stress Test, normal cells; conditions: 500 nM (sublethal), 24 hours
Experimental: as §1, §2

[3] = tested on: CRC cell lines (HT-29, LS411N, and SW620); test: Trypan Blue exclusion viability assay, CRC cell lines; conditions: 10 μM, 48 hours
Experimental: FIGS. 4A-4F show AP-4-139B is efficacious as a single agent against human CRC in vitro and in vivo. FIG. 4A: Three CRC cell lines (HT-29, LS411N, and SW620) were treated with 10 μM of PET-16 or AP-4-139B for 48 hours. Cell were then subjected to viability assays using Trypan Blue exclusion. *** p<0.001. […] FIGS. 4B-4C: A panel of six CRC cell lines (SW620, HT-29, HCT 116+/−p53, RKO, and LS411N) were plated at a density of 1,000 cells per well in 96-well plates. The next day, cells were treated with the indicated inhibitors for 72 hours. Cells were then subjected to the Alamar Blue cell viability assays. Shown are representative IC50 values of an average of six technical replicates and two biological replicates. FIG. 4D: 2.5×10^6 HT-29 cells were injected subcutaneously into the right flank of NSG mice. Once tumors reached an approximate volume of 100 mm^3, mice were separated randomly into two groups: control vs. AP-4-139B. Mice were treated with 12.5 mg/kg AP-4-139B three times a week. All mice were euthanized 22 days after the start of treatment. Tumor volumes were recorded using digital calipers and using the formula v=length×width^2×0.52. *** p<0.001. n=10 mice per group. FIG. 4E: Immunohistochemistry (IHC) analysis of HT-29 xenograft tumors treated with AP-4-139B. […]

SMILES | basal oxygen consumption rate and ATP production in tumor cell lines [1] | mitochondrial function in normal cells [2] | decrease of CRC cell viability [3]
C(#C[P+](c1ccccc1)(c1ccccc1)c1ccccc1)c1ccccc1 [PET-16, Triphenyl(phenylethynyl)phosphonium bromide, reference compound] | minimal activity | largely unaffected | modest ability to decrease CRC cell viability
c1ccc(-c2cn3nc(CCCCCC[P+](c4ccccc4)(c4ccccc4)c4ccccc4)sc3n2)cc1 [AP-4-139B, Triphenyl(6-(6-phenylimidazo[2,1-b][1,3,4]thiadiazol-2-yl)hexyl)phosphonium bromide] | reduced basal oxygen consumption rate and ATP production | largely unaffected | markedly more cytotoxic
